Reference: the supplement of paper PMC9663587

Tests used:
Test in all cases: area over the GR curve, 72 h; higher = more effect;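 also: Dye Drop or Deep Dye Drop imaging of viable cells in 384-well plates (Hoechst nuclei, LIVE/DEAD dye), nine half-log doses, GR normalized to DMSO controls and time-zero plates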
AU565 = test system: AU565
CAL120 = test system: CAL120
CAL51 = test system: CAL51
MCF12A = test system: MCF12A
MDAMB175VII = test system: MDAMB175VII
MGH312 = test system: MGH312
PDX1258 = test system: PDX1258
PDXHCI002 = test system: PDXHCI002
SKBR3 = test system: SKBR3
SUM1315 = test system: SUM1315
SUM149 = test system: SUM149
SUM44PE = test system: SUM44PE
ZR7530 = test system: ZR7530

Compound	area over the GR curve (AU565)	area over the GR curve (CAL120)	area over the GR curve (CAL51)	area over the GR curve (MCF12A)	area over the GR curve (MDAMB175VII)	area over the GR curve (MGH312)	area over the GR curve (PDX1258)	area over the GR curve (PDXHCI002)	area over the GR curve (SKBR3)	area over the GR curve (SUM1315)	area over the GR curve (SUM149)	area over the GR curve (SUM44PE)	area over the GR curve (ZR7530)	area over the GR curve (CAL120; main component drawn)	area over the GR curve (CAL51; main component drawn)	area over the GR curve (PDX1258; main component drawn)	area over the GR curve (PDXHCI002; main component drawn)	area over the GR curve (SKBR3; main component drawn)	area over the GR curve (SUM1315; main component drawn)	area over the GR curve (SUM149; main component drawn)
CN(C)C/C=C/C(=O)Nc1ccc(O[C@@H]2CCC[C@@H](Nc3ncc(Cl)c(-c4c[nH]c5ccccc45)n3)C2)cc1 [BSJ-01-175] (max 10 µM)	1.06 GR	0.667 GR	0.434 GR	0.146 GR	1.21 GR	1.47 GR	1.3 GR	0.906 GR	1.04 GR	0.509 GR	0.747 GR	1.27 GR	0.989 GR	–	–	–	–	–	–	–
C=CCn1c(=O)c2cnc(Nc3ccc(N4CCN(C)CC4)cc3)nc2n1-c1cccc(C(C)(C)O)n1 [AZD1775] (max 10 µM)	0.496 GR	0.483 GR	0.461 GR	0.255 GR	0.587 GR	0.334 GR	0.73 GR	0.483 GR	0.528 GR	1.02 GR	0.614 GR	0.502 GR	0.322 GR	–	–	–	–	–	–	–
CN1CCN(CCOc2cc(OC3CCOCC3)c3c(Nc4c(Cl)ccc5c4OCO5)ncnc3c2)CC1 [Saracatinib/AZD0530] (max 10 µM)	0.119 GR	0.173 GR	0.227 GR	0.0317 GR	0.762 GR	0.537 GR	0.275 GR	0.512 GR	-0.0324 GR	0.244 GR	0.132 GR	0.112 GR	0.399 GR	–	–	–	–	–	–	–
N.N.[Cl][Pt][Cl] [Cisplatin] (max 10 µM)	–	0.182 GR	0.214 GR	–	–	–	0.155 GR	0.201 GR	0.0978 GR	0.296 GR	0.355 GR	–	–	–	–	–	–	–	–	–
CCOc1cc2ncc(C#N)c(Nc3ccc(OCc4ccccn4)c(Cl)c3)c2cc1NC(=O)/C=C/CN(C)C [Neratinib/HKI272] (max 3.162 µM)	1.15 GR	0.224 GR	0.091 GR	0.194 GR	1.45 GR	0.373 GR	0.154 GR	0.367 GR	0.891 GR	0.364 GR	0.358 GR	0.568 GR	1.08 GR	–	–	–	–	–	–	–
CNC(=O)c1cccc(-c2ccc3c(N4CCOC[C@@H]4C)nc(N4CCOC[C@@H]4C)nc3n2)c1 [AZD2014] (max 10 µM)	0.757 GR	0.464 GR	0.485 GR	0.529 GR	1.35 GR	1.39 GR	0.41 GR	0.0467 GR	0.87 GR	0.663 GR	0.385 GR	0.917 GR	0.749 GR	–	–	–	–	–	–	–
CO[C@@H](C)Cn1c(=O)n(C)c2cnc3ccc(-c4cncc(C(C)(C)O)c4)cc3c21 (max 10 µM)	0.793 GR	0.696 GR	0.631 GR	0.476 GR	1.32 GR	1.21 GR	0.557 GR	0.228 GR	0.824 GR	0.693 GR	0.286 GR	1.02 GR	0.726 GR	–	–	–	–	–	–	–
CCN1CCN(Cc2ccc(Nc3ncc(F)c(-c4cc(F)c5nc(C)n(C(C)C)c5c4)n3)nc2)CC1 (max 10 µM)	0.657 GR	0.478 GR	0.578 GR	0.169 GR	0.901 GR	0.124 GR	0.329 GR	0.764 GR	0.536 GR	0.582 GR	0.344 GR	0.651 GR	0.546 GR	–	–	–	–	–	–	–
O=C(c1cc(Cc2n[nH]c(=O)c3ccccc23)ccc1F)N1CCN(C(=O)C2CC2)CC1 [Olaparib/AZD2281] (max 10 µM)	0.0653 GR	0.143 GR	0.116 GR	0.0468 GR	0.0102 GR	0.0149 GR	0.02 GR	0.167 GR	0.04 GR	0.245 GR	0.184 GR	-0.0366 GR	0.0601 GR	–	–	–	–	–	–	–
O=C(CCCCCCC(=O)Nc1ccccc1)NO [Vorinostat] (max 10 µM)	0.327 GR	0.241 GR	0.186 GR	0.0874 GR	0.445 GR	0.37 GR	0.211 GR	0.545 GR	0.345 GR	0.166 GR	0.225 GR	0.181 GR	0.276 GR	–	–	–	–	–	–	–
Cc1nc(Nc2ncc(C(=O)Nc3c(C)cccc3Cl)s2)cc(N2CCN(CCO)CC2)n1 [Dasatinib] (max 10 µM)	0.155 GR	0.519 GR	0.516 GR	0.42 GR	0.972 GR	0.908 GR	0.714 GR	0.376 GR	-0.0183 GR	0.74 GR	0.52 GR	0.128 GR	0.426 GR	–	–	–	–	–	–	–
Nc1cc(C(F)(F)F)c(-c2cc(N3CCOCC3)nc(N3CCOCC3)n2)cn1 [Buparlisib/NVP-BKM120] (max 10 µM)	0.662 GR	0.339 GR	0.328 GR	0.168 GR	0.705 GR	0.506 GR	0.245 GR	0.229 GR	0.585 GR	0.438 GR	0.248 GR	0.436 GR	0.371 GR	–	–	–	–	–	–	–
CC(C)Nc1cc(-c2c[nH]c(C(=O)N[C@H](CO)c3cccc(Cl)c3)c2)c(Cl)cn1 [BVD523] (max 10 µM)	0.061 GR	0.108 GR	0.0561 GR	0.111 GR	0.472 GR	-0.0209 GR	0.149 GR	0.168 GR	0.124 GR	0.0786 GR	0.233 GR	0.218 GR	0.08 GR	–	–	–	–	–	–	–
CC[C@@H]1C(=O)N(C)c2cnc(Nc3ccc(C(=O)N[C@H]4CC[C@H](N5CCN(CC6CC6)CC5)CC4)cc3OC)nc2N1C(C)C [Volasertib/BI6727] (max 1 µM)	0.855 GR	0.676 GR	0.679 GR	0.321 GR	0.449 GR	0.801 GR	0.549 GR	0.831 GR	0.694 GR	0.664 GR	0.569 GR	0.623 GR	0.753 GR	–	–	–	–	–	–	–
COc1cc([C@@H]2c3cc4c(cc3[C@@H](O[C@@H]3O[C@@H]5CO[C@@H](C)O[C@H]5[C@H](O)[C@H]3O)[C@H]3COC(=O)[C@H]23)OCO4)cc(OC)c1O [Etoposide] (max 10 µM)	–	0.381 GR	0.467 GR	–	–	–	0.394 GR	0.488 GR	0.403 GR	0.381 GR	0.527 GR	–	–	–	–	–	–	–	–	–
Cc1c(N)nc([C@H](CC(N)=O)NC[C@H](N)C(N)=O)nc1C(=O)N[C@H](C(=O)N[C@H](C)[C@@H](O)[C@H](C)C(=O)N[C@H](C(=O)NCCc1nc(-c2nc(C(=O)NCCC[S+](C)C)cs2)cs1)[C@@H](C)O)[C@@H](OC1OC(CO)C(O)C(O)C1OC1OC(CO)C(O)C(OC(N)=O)C1O)c1cnc[nH]1 (stereo not given in full) [Bleomycin] (max 10 µM)	–	–	–	–	–	–	–	–	–	–	–	–	–	0.232 GR	0.485 GR	0.295 GR	0.272 GR	0.259 GR	0.41 GR	0.683 GR
